Patent publication US4416884A, “Piperazinylbenzoheterocyclic compounds” (Otsuka Pharmaceutical Co., Ltd., priority 1978, dated 1983)
Like-named read-outs stand apart in the source and are kept apart here.

Experiments:
Format in all cases: cell-based
[1] = tested on: Test Organism 21 (Bacillus subtilis PCI 219); experiment: influence of the addition of horse serum on the MIC
[2] = tested on: Streptococcus pneumoniae Type II; experiment: antimicrobial activity, serial dilution method on agar plate
Procedure, shortened: (§1)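 MIC (mcg/ml) read on Heart Infusion agar plates carrying serial compound dilutions. Organisms inoculated at two densities: 1×10^8 cells/ml, set by O.D. 660 mμ=0.07 to 0.16, and a 1×10^6 cells/ml dilution of that suspension.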

[3] = tested on: Streptococcus pyogenes IID S-23; experiment: as above
Procedure, shortened: as §1

[4] = tested on: Streptococcus pyogenes IID Cook; experiment: as above
Procedure, shortened: as §1

[5] = tested on: Pseudomonas putida IFO 13696; experiment: as above; conditions: read-out: Minimum Inhibitory Concentration
Procedure, shortened: as §1

[6] = tested on: Escherichia Coli NIHJ; experiment: as above; conditions: read-out: Minimum Inhibitory Concentration
Procedure, shortened: as §1

[7] = tested on: Bacillus subtilis PCI 219; experiment: as above
Procedure, shortened: as §1

[8] = tested on: Streptococcus pneumoniae Type I; experiment: as above
Procedure, shortened: as §1

[9] = tested on: Klebsiella pneumoniae; experiment: as above
Procedure, shortened: as §1

[10] = tested on: Shigella Sonnei EW 33; experiment: as above; conditions: read-out: Minimum Inhibitory Concentration
Procedure, shortened: as §1

[11] = tested on: Pseudomonas aeruginosa E-2; experiment: as above
Procedure, shortened: as §1

[12] = tested on: Streptococcus pneumoniae Type III; experiment: as above
Procedure, shortened: as §1

[13] = tested on: Proteus rettgeri NIH 96; experiment: as above; conditions: Providencia rettgeri
Procedure, shortened: as §1

[14] = tested on: Hafnia alvei IFO 3731; experiment: as above; conditions: read-out: Minimum Inhibitory Concentration
Procedure, shortened: as §1

[15] = tested on: Proteus morganii IID Kono; experiment: as above; conditions: Morganella morganii
Procedure, shortened: as §1

[16] = tested on: Escherichia Coli NIHJ JC-2 (IFO 12734); experiment: as above; conditions: Escherichia coli, read-out: Minimum Inhibitory Concentration
Procedure, shortened: as §1

[17] = tested on: Salmonella typhi 0-901 (NCTC 8393); experiment: as above; conditions: Salmonella enterica
Procedure, shortened: as §1

[18] = tested on: Enterobacter cloacae; experiment: as above
Procedure, shortened: as §1

[19] = tested on: Pseudomonas aeruginosa NCTC 10490; experiment: as above
Procedure, shortened: as §1

[20] = tested on: Pseudomonas aeruginosa ATCC 10145; experiment: as above
Procedure, shortened: as §1

[21] = tested on: Pseudomonas maltophilia IFO 12692; experiment: as above; conditions: Stenotrophomonas maltophilia
Procedure, shortened: as §1

[22] = tested on: Enterobacter aerogenes IFO 12979; experiment: as above; conditions: Klebsiella aerogenes
Procedure, shortened: as §1

[23] = tested on: Test Organism 27 (Streptococcus pneumoniae Type III); experiment: influence of the addition of horse serum on the MIC
[24] = tested on: Test Organism 16 (Pseudomonas maltophilia IFO 12692); experiment: as above; conditions: Stenotrophomonas maltophilia, read-out: Minimum Inhibitory Concentration
[25] = tested on: Proteus vulgaris IID OX-19; experiment: antimicrobial activity, serial dilution method on agar plate; conditions: read-out: Minimum Inhibitory Concentration
Procedure, shortened: as §1

[26] = horse serum 0%, inoculum 10^6, read-out: Minimum Inhibitory Concentration
[27] = horse serum 0%, inoculum 10^8, read-out: Minimum Inhibitory Concentration
[28] = horse serum 10%, inoculum 10^6, read-out: Minimum Inhibitory Concentration
[29] = horse serum 10%, inoculum 10^8, read-out: Minimum Inhibitory Concentration
[30] = horse serum 20%, inoculum 10^6, read-out: Minimum Inhibitory Concentration
[31] = horse serum 20%, inoculum 10^8, read-out: Minimum Inhibitory Concentration
[32] = horse serum 40%, inoculum 10^6, read-out: Minimum Inhibitory Concentration
[33] = horse serum 40%, inoculum 10^8, read-out: Minimum Inhibitory Concentration
[34] = inoculum 1 × 10^8 cells/ml, read-out: Minimum Inhibitory Concentration
[35] = IFO13696, inoculum 1 × 10^6 cells/ml
[36] = IFO13696, inoculum 1 × 10^8 cells/ml
[37] = inoculum 1 × 10^6 cells/ml, read-out: Minimum Inhibitory Concentration
[38] = IFO3731, inoculum 1 × 10^6 cells/ml
[39] = IFO3731, inoculum 1 × 10^8 cells/ml
[40] = read-out: Minimum Inhibitory Concentration, inoculum 1 × 10^6 cells/ml
[41] = read-out: Minimum Inhibitory Concentration, inoculum 1 × 10^8 cells/ml

Measured: MIC

CC1CCc2cc(F)cc3c(=O)c(C(=O)O)cn1c23 (centres unmarked) [F]
12.5 µg/mL: [19]; NCTC10490, inoculum 1 × 10^6 cells/ml, read-out: Minimum Inhibitory Concentration | [20]; ATCC10145, inoculum 1 × 10^6 cells/ml, read-out: Minimum Inhibitory Concentration
0.8 µg/mL: [1]; [26] | [1]; [27] | [1]; [28] | [1]; [29] | [1]; [30] | [1]; [31] | [9]; [34] | [10]; inoculum 1 × 10^6 cells/ml | [10]; inoculum 1 × 10^8 cells/ml | [15]; [34] | [16]; inoculum 1 × 10^8 cells/ml | [24]; IFO12692, horse serum 0%, inoculum 10^6 | [24]; IFO12692, horse serum 0%, inoculum 10^8 | [24]; IFO12692, horse serum 10%, inoculum 10^8 | [24]; IFO12692, horse serum 20%, inoculum 10^8
125 µg/mL: [5]; [35] | [14]; [38]
1.6 µg/mL: [1]; [32] | [1]; [33] | [24]; IFO12692, horse serum 20%, inoculum 10^6 | [24]; IFO12692, horse serum 40%, inoculum 10^6 | [24]; IFO12692, horse serum 40%, inoculum 10^8
0.1 µg/mL: [6]; inoculum 1 × 10^6 cells/ml | [13]; NIH96, inoculum 1 × 10^6 cells/ml, read-out: Minimum Inhibitory Concentration
25 µg/mL: [5]; [36] | [14]; [39] | [19]; NCTC10490, inoculum 1 × 10^8 cells/ml, read-out: Minimum Inhibitory Concentration | [20]; ATCC10145, inoculum 1 × 10^8 cells/ml, read-out: Minimum Inhibitory Concentration | [21]; IFO12692, inoculum 1 × 10^8 cells/ml, read-out: Minimum Inhibitory Concentration
0.2 µg/mL: [6]; inoculum 1 × 10^8 cells/ml | [7]; PCI219, inoculum 1 × 10^6 cells/ml, read-out: Minimum Inhibitory Concentration | [13]; NIH96, inoculum 1 × 10^8 cells/ml, read-out: Minimum Inhibitory Concentration | [17]; [40] | [17]; [41] | [18]; [37] | [22]; IFO12979, inoculum 1 × 10^6 cells/ml, read-out: Minimum Inhibitory Concentration
> 100 µg/mL: [2]; [34] | [3]; IIDS23, inoculum 1 × 10^6 cells/ml, read-out: Minimum Inhibitory Concentration | [3]; IIDS23, inoculum 1 × 10^8 cells/ml, read-out: Minimum Inhibitory Concentration | [4]; [34] | [8]; [34] | [12]; [34]
50 µg/mL: [11]; E2, inoculum 1 × 10^6 cells/ml, read-out: Minimum Inhibitory Concentration | [11]; E2, inoculum 1 × 10^8 cells/ml, read-out: Minimum Inhibitory Concentration | [23]; [26] | [23]; [27] | [23]; [28] | [23]; [30] | [23]; [32]
> 50 µg/mL: [23]; [29] | [23]; [31] | [23]; [33]
0.4 µg/mL: [7]; PCI219, inoculum 1 × 10^8 cells/ml, read-out: Minimum Inhibitory Concentration | [9]; [37] | [15]; [37] | [16]; inoculum 1 × 10^6 cells/ml | [18]; [34] | [22]; IFO12979, inoculum 1 × 10^8 cells/ml, read-out: Minimum Inhibitory Concentration | [24]; IFO12692, horse serum 10%, inoculum 10^6

CCn1cc(C(=O)O)c(=O)c2ccc(C)nc21 [E]
100 µg/mL: [5]; [36] | [14]; [39]
3.1 µg/mL: [6]; inoculum 1 × 10^8 cells/ml | [7]; PCI219, read-out: Minimum Inhibitory Concentration, inoculum 1 × 10^6 cells/ml | [9]; [40] | [9]; [41] | [10]; inoculum 1 × 10^6 cells/ml | [10]; inoculum 1 × 10^8 cells/ml | [15]; [40] | [25]; IIDOX19, inoculum 1 × 10^6 cells/ml | [25]; IIDOX19, inoculum 1 × 10^8 cells/ml | [16]; inoculum 1 × 10^6 cells/ml | [16]; inoculum 1 × 10^8 cells/ml | [17]; [40] | [17]; [41] | [18]; [40] | [18]; [41] | [22]; IFO12979, read-out: Minimum Inhibitory Concentration, inoculum 1 × 10^6 cells/ml
0.8 µg/mL: [13]; NIH96, read-out: Minimum Inhibitory Concentration, inoculum 1 × 10^6 cells/ml
6.3 µg/mL: [7]; PCI219, read-out: Minimum Inhibitory Concentration, inoculum 1 × 10^8 cells/ml | [15]; [41] | [22]; IFO12979, read-out: Minimum Inhibitory Concentration, inoculum 1 × 10^8 cells/ml
> 100 µg/mL: [2]; [40] | [2]; [41] | [3]; IIDS23, read-out: Minimum Inhibitory Concentration, inoculum 1 × 10^6 cells/ml | [3]; IIDS23, read-out: Minimum Inhibitory Concentration, inoculum 1 × 10^8 cells/ml | [4]; [40] | [4]; [41] | [8]; [40] | [8]; [41] | [11]; E2, read-out: Minimum Inhibitory Concentration, inoculum 1 × 10^6 cells/ml | [11]; E2, read-out: Minimum Inhibitory Concentration, inoculum 1 × 10^8 cells/ml | [12]; [40] | [12]; [41] | [19]; NCTC10490, read-out: Minimum Inhibitory Concentration, inoculum 1 × 10^6 cells/ml | [19]; NCTC10490, read-out: Minimum Inhibitory Concentration, inoculum 1 × 10^8 cells/ml | [20]; ATCC10145, read-out: Minimum Inhibitory Concentration, inoculum 1 × 10^6 cells/ml | [20]; ATCC10145, read-out: Minimum Inhibitory Concentration, inoculum 1 × 10^8 cells/ml | [21]; IFO12692, read-out: Minimum Inhibitory Concentration
50 µg/mL: [5]; [35] | [14]; [38]
1.6 µg/mL: [6]; inoculum 1 × 10^6 cells/ml | [13]; NIH96, read-out: Minimum Inhibitory Concentration, inoculum 1 × 10^8 cells/ml
